What is called IC50 is the concentration at which inhibition is half-maximal. High values mean lower potency, low ones higher potency. For orientation: EC50 means the midpoint of the concentration-response curve. Read a low EC50 as higher potency in that assay.

Test [1] has as its target T1, human D2R/β-arrestin (Homo sapiens (Human), UniProt P14416). Description: cell-based. As to conditions: β-arrestin Antagonist, CHO-K1 cells expressing human D2R/β-arrestin; antagonist mode, quinpirole 130 nM.
Test [2] addresses T1, human D2R/β-arrestin. The test is described as follows: β-arrestin agonist assay (PathHunter). In kind it is cell-based. As to conditions: CHO-K1 cells expressing human D2R/β-arrestin; agonist mode. As for the experimental part:
The detection reagent (9.6 μL, Buffer:Emerald II:Galactor-Star in a 19:5:1 ratio, i.e., 14.06 mL:3.7 mL:0.74 mL=18.5 mL) was then added to the agonist plates.

Test [3] addresses T1, human D2R/β-arrestin. Description: Gi/cAMP agonist assay (Lance Ultra cAMP, forskolin). The test is classed as cell-based. The conditions noted are these: CHO-K1 cells expressing human D2R/β-arrestin; agonist mode, 2.5 μM forskolin. Here is the method: Eu-cAMP tracer solution (10 μl, PerkinElmer, 360 μl of Tracer in 17.64 ml kit buffer) and ULight-anti-cAMP solution (10 μl, 120 μL antibody in 17.88 ml kit buffer) was then added to each well.

Test [4] deals with T1, human D2R/β-arrestin. Description: cell-based. As to conditions: cAMP Antagonist, CHO-K1 cells expressing human D2R/β-arrestin; antagonist mode, 2.5 μM forskolin and 2.7 nM quinpirole.
Procedure: Cells were prepared for assays by growing cultures for up to 2 weeks (from about 6-20 passages). A vial of frozen cells was thawed in a water bath held at 37° C. The cells were then transferred into a 50 ml tube with 10 ml growth media. The vial was rinsed with growth media and the contents transferred to the 50 ml tube. The 50 ml tube was centrifuged at 1200 rpm for 5 minutes at room temperature. […] When the cells reached about 90% confluence (approximately 3 days between passages), the cells were passaged and used for either the agonist or antagonist assays as described below.
The cells were prepared for Gi/cAMP assays as described above. The assays were performed using a PE Lance Ultra cAMP kit (TRF0263). The cells were grown on 225 mm dishes, then washed once with 1×PBS (Cellgro) before digestion with 2.5 ml 1× Detachment reagent (DRX 92-0009) for about 2 minutes. PBS (20 ml) was then added to the plate, and the cells were transferred to a 50 ml centrifuge tube, and centrifuged at room temperature using BD Dynac III, at 1200 rpm for 5 minutes. […] The plates were then incubated at room temperature for about 30 minutes before addition of Eu-cAMP tracer solution (10 μl, PerkinElmer) and then ULight-anti-cAMP solution (10 μl) to each well.

T1 sequence (P14416 whole entry): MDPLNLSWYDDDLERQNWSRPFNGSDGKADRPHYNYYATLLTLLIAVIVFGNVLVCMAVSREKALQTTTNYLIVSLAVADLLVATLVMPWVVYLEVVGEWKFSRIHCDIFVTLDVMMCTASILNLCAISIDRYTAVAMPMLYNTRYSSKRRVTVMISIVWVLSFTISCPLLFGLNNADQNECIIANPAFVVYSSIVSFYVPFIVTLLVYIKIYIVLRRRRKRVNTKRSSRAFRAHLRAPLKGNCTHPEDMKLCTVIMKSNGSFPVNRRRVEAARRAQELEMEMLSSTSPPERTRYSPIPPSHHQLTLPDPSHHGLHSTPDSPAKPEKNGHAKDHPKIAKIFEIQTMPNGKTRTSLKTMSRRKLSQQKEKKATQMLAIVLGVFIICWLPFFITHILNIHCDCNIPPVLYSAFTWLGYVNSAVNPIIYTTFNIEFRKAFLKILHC

`CC1(Oc2ccc(Cl)cc2)CCN(CCOc2ccc3ncoc3c2)CC1` [Compound 127, 6-(2-(4-(4-chlorophenoxy)-4-methylpiperidin-1-yl)ethoxy)benzo[d] oxazole]: the IC50 against human D2R/β-arrestin [1] was 1 to 10 µM; against human D2R/β-arrestin [4] it was above 30 µM. Also, the EC50 was 0.1 to 1 µM on human D2R/β-arrestin [2] and below 0.1 µM at human D2R/β-arrestin [3].
The matching figures for `CC1(Oc2ccc(Cl)cc2)CCN(CCOc2cnccc2C(F)(F)F)CC1` [Compound 128, 3-(2-(4-(4-chlorophenoxy)-4-methylpiperidin-1-yl)ethoxy)-4-(trifluoromethyl)pyridine]: 1 to 10 µM, 0.1 to 1 µM, above 30 µM and 1 to 10 µM.
Take `CC1(Oc2ccc(Cl)cc2)CCN(CC(=O)Nc2ccccc2C(F)(F)F)CC1` [Compound 129, 2-(4-(4-chlorophenoxy)-4-methylpiperidin-1-yl)-N-(2-(trifluoromethyl)phenyl)acetamide]: the IC50 against human D2R/β-arrestin [1] and against human D2R/β-arrestin [4] was above 30 µM throughout. Also, the EC50 on human D2R/β-arrestin [2] and at human D2R/β-arrestin [3] was above 30 µM in each case.
For the molecule `CC1(O)CCN(CCOc2ccccc2)CC1` [Compound 130, 4-Methyl-1-(2-phenoxyethyl)piperidin-4-ol], the IC50 at human D2R/β-arrestin [1] is 10 to 30 µM; on human D2R/β-arrestin [4] it was above 30 µM. Besides, the EC50 is 1 to 10 µM on human D2R/β-arrestin [2] and 0.1 to 1 µM on human D2R/β-arrestin [3].
In the case of `CC1(O)CCN(CCOc2ccccc2F)CC1` [Compound 131, 1-(2-(2-fluorophenoxy)ethyl)-4-methylpiperidin-4-ol], the IC50 was 1 to 10 µM against human D2R/β-arrestin [1] and above 30 µM at human D2R/β-arrestin [4]. For the same molecule, the EC50 at human D2R/β-arrestin [2] was 0.1 to 1 µM; on human D2R/β-arrestin [3] it was below 0.1 µM.
With `CC1(O)CCN(CCOc2ccc(C(F)(F)F)cc2)CC1` [Compound 132, 4-methyl-1-(2-(4-(trifluoromethyl)phenoxy)ethyl)piperidin-4-ol], the values for the IC50 against human D2R/β-arrestin [1] and against human D2R/β-arrestin [4] were 10 to 30 µM and 1 to 10 µM, respectively. For the same molecule, the EC50 at human D2R/β-arrestin [2] and on human D2R/β-arrestin [3] was above 30 µM throughout.
With `C[C@]1(O)C[C@H]2CC[C@@H](C1)N2CCOc1ccccc1C(F)(F)F` [Compound 133, 3-methyl-8-(2-(2-(trifluoromethyl)phenoxy)ethyl)-8-azabicyclo[3.2.1] octan-3-ol], the IC50 against human D2R/β-arrestin [1] and against human D2R/β-arrestin [4] was 0.1 to 1 µM each time. The EC50 at human D2R/β-arrestin [2] and at human D2R/β-arrestin [3] was above 30 µM in each case.
In the case of `CC1(O)CCCN(CCOc2ccccc2C(F)(F)F)C1` (stereo not drawn) [Compound 134, 3-Methyl-1-(2-(2-(trifluoromethyl)phenoxy)ethyl)piperidin-3-ol], the IC50 against human D2R/β-arrestin [1] lay within 10 to 30 µM; on human D2R/β-arrestin [4], 1 to 10 µM. The EC50 on human D2R/β-arrestin [2] and on human D2R/β-arrestin [3] was above 30 µM each time.
Regarding `FC(F)(F)c1ccccc1OCCN1CCC2(CC1)CCN2c1ccc(Cl)cc1` [Compound 136, 1-(4-Chlorophenyl)-7-(2-(2-(trifluoromethyl)phenoxy)ethyl)-1,7-diazaspiro[3.5]nonane], the IC50 against human D2R/β-arrestin [1] was 0.1 to 1 µM; against human D2R/β-arrestin [4] it was below 0.1 µM. Besides, the EC50 at human D2R/β-arrestin [2] and at human D2R/β-arrestin [3] was above 30 µM in each case.
Regarding `CC1(O)CCN(CCCOc2ccccc2C(F)(F)F)CC1` [Compound 138, 4-methyl-1-(3-(2-(trifluoromethyl)phenoxy)propyl)piperidin-4-ol], the IC50 against human D2R/β-arrestin [1] and at human D2R/β-arrestin [4] was 0.1 to 1 µM throughout. Further, the EC50 at human D2R/β-arrestin [2] and at human D2R/β-arrestin [3] was above 30 µM each time.
Consider `CC1(O)CCN(CCOc2ccccc2C(F)(F)F)C1` (stereo not drawn) [Compound 139, 3-Methyl-1-(2-(2-(trifluoromethyl)phenoxy)ethyl)pyrrolidin-3-ol], for which the IC50 against human D2R/β-arrestin [1] and at human D2R/β-arrestin [4] was 1 to 10 µM each time. In addition, the EC50 on human D2R/β-arrestin [2] and on human D2R/β-arrestin [3] was above 30 µM in each case.
For `CC1(Oc2ccccc2)CCN(CCOc2ccccc2S(C)(=O)=O)CC1` [Compound 141, 4-methyl-1-(2-(2-(methylsulfonyl)phenoxy)ethyl)-4-phenoxypiperidine], the IC50 against human D2R/β-arrestin [1] and on human D2R/β-arrestin [4] was 0.1 to 1 µM throughout. Besides, the EC50 was above 30 µM at human D2R/β-arrestin [2] and 1 to 10 µM at human D2R/β-arrestin [3].
Regarding `CC1(Oc2ccc(Cl)cc2)CCN(CC2COc3ccccc3O2)CC1` (stereo not drawn) [Compound 142, 4-(4-chlorophenoxy)-1-((2,3-dihydrobenzo[b][1,4]dioxin-2-yl)methyl)-4-methylpiperidine], the IC50 on human D2R/β-arrestin [1] and against human D2R/β-arrestin [4] was above 30 µM each time. Moreover, the results for the EC50 at human D2R/β-arrestin [2] and at human D2R/β-arrestin [3] were 0.1 to 1 µM and below 0.1 µM, respectively.
For `CC1(Oc2ccc(Cl)cc2)CCN(CCOC2CCCCC2)CC1` [Compound 143, 4-(4-chlorophenoxy)-1-(2-(cyclohexyloxy)ethyl)-4-methylpiperidine], the IC50 on human D2R/β-arrestin [1] is 10 to 30 µM; on human D2R/β-arrestin [4] it was above 30 µM. For the same molecule, the EC50 at human D2R/β-arrestin [2] was above 30 µM; at human D2R/β-arrestin [3] it was 10 to 30 µM.
For the molecule `Clc1ccc2c(c1)C[C@@H]1CN(CCOc3ccccc3)C[C@H]1O2` [Compound 145, (3aS,9aR)-7-chloro-2-(2-phenoxyethyl)-1,2,3,3a,9,9a-hexahydrochromeno[2,3-c]pyrrole], the IC50 against human D2R/β-arrestin [1] lay in the range of 10 to 30 µM; at human D2R/β-arrestin [4], 0.1 to 1 µM. Further, the EC50 on human D2R/β-arrestin [2] and at human D2R/β-arrestin [3] was above 30 µM each time.
On to `CC1(Oc2ccc(Cl)cc2)CCN(CCOc2ccccc2OC(F)(F)F)CC1` [Compound 146, 4-(4-chlorophenoxy)-4-methyl-1-(2-(2-(trifluoromethoxy)phenoxy)ethyl) piperidine], for which the IC50 against human D2R/β-arrestin [1] is 0.1 to 1 µM; against human D2R/β-arrestin [4], above 30 µM. In addition, the EC50 at human D2R/β-arrestin [2] and on human D2R/β-arrestin [3] was 0.1 to 1 µM each time.
With `CC1(Oc2ccc(Cl)cc2)CCN(CCOc2ccc(C(F)(F)F)nc2)CC1` [Compound 147, 5-(2-(4-(4-chlorophenoxy)-4-methylpiperidin-1-yl)ethoxy)-2-(trifluoromethyl)pyridine], the IC50 at human D2R/β-arrestin [1] and on human D2R/β-arrestin [4] was above 30 µM each time. Further, the EC50 at human D2R/β-arrestin [2] and on human D2R/β-arrestin [3] was below 0.1 µM throughout.
On to `CC1(Oc2ccc(Cl)cc2)CCN(CCOc2ccc(C(F)(F)F)cn2)CC1` [Compound 148, 2-(2-(4-(4-chlorophenoxy)-4-methylpiperidin-1-yl)ethoxy)-5-(trifluoromethyl) pyridine], for which the IC50 against human D2R/β-arrestin [1] and on human D2R/β-arrestin [4] was above 30 µM each time. In addition, the results for the EC50 at human D2R/β-arrestin [2] and on human D2R/β-arrestin [3] were above 30 µM and 10 to 30 µM, respectively.
Turning to `CC1(Oc2ccc(Cl)cc2)CCN(CCOc2ccc(F)cc2)CC1` [Compound 149, 4-(4-chlorophenoxy)-1-(2-(4-fluorophenoxy)ethyl)-4-methylpiperidine], the values for the IC50 against human D2R/β-arrestin [1] and against human D2R/β-arrestin [4] were 1 to 10 µM and above 30 µM, respectively. Moreover, the results for the EC50 at human D2R/β-arrestin [2] and at human D2R/β-arrestin [3] were 0.1 to 1 µM and below 0.1 µM, respectively.
`Cc1ccc(OCCN2CCC(C)(Oc3ccc(Cl)cc3)CC2)cc1` [Compound 150, 4-(4-chlorophenoxy)-4-methyl-1-(2-(p-tolyloxy)ethyl)piperidine]: the IC50 at human D2R/β-arrestin [1] and against human D2R/β-arrestin [4] was above 30 µM each time. The EC50 at human D2R/β-arrestin [2] is 0.1 to 1 µM; at human D2R/β-arrestin [3], below 0.1 µM.
As to `CC1(Oc2ccc(Cl)cc2)CCN(CCOc2ccc(Cl)cc2)CC1` [Compound 151, 4-(4-chlorophenoxy)-1-(2-(4-chlorophenoxy)ethyl)-4-methylpiperidine], the IC50 against human D2R/β-arrestin [1] and on human D2R/β-arrestin [4] was above 30 µM throughout. The EC50 at human D2R/β-arrestin [2] is 0.1 to 1 µM; at human D2R/β-arrestin [3], below 0.1 µM.
`CC1(Oc2ccc(Cl)cc2)CCN(CCOc2ccc(S(C)(=O)=O)cc2)CC1` [Compound 152, 4-(4-chlorophenoxy)-4-methyl-1-(2-(4-(methylsulfonyl)phenoxy)ethyl)piperidine]: the IC50 on human D2R/β-arrestin [1] and at human D2R/β-arrestin [4] was 10 to 30 µM throughout. In addition, the EC50 at human D2R/β-arrestin [2] is above 30 µM; on human D2R/β-arrestin [3] it was 10 to 30 µM.
As to `CC(=O)c1ccc(OCCN2CCC(C)(Oc3ccc(Cl)cc3)CC2)cc1` [Compound 153, 1-(4-(2-(4-(4-chlorophenoxy)-4-methylpiperidin-1-yl)ethoxy)phenyl)ethanone], the IC50 against human D2R/β-arrestin [1] and on human D2R/β-arrestin [4] was 1 to 10 µM throughout. In addition, the EC50 on human D2R/β-arrestin [2] and on human D2R/β-arrestin [3] was above 30 µM each time.
On to `CC(O)c1ccc(OCCN2CCC(C)(Oc3ccc(Cl)cc3)CC2)cc1` (stereo not drawn) [Compound 154, 1-(4-(2-(4-(4-chlorophenoxy)-4-methylpiperidin-1-yl)ethoxy)phenyl)ethanol], for which the values for the IC50 on human D2R/β-arrestin [1] and at human D2R/β-arrestin [4] were 10 to 30 µM and 0.1 to 1 µM, respectively. The EC50 at human D2R/β-arrestin [2] and at human D2R/β-arrestin [3] was above 30 µM throughout.
As to `CC1(Oc2ccc(Cl)cc2)CCN(CCOc2ccc(C(C)(C)O)cc2)CC1` [Compound 155, 2-(4-(2-(4-(4-chlorophenoxy)-4-methylpiperidin-1-yl)ethoxy)phenyl)propan-2-ol], the IC50 against human D2R/β-arrestin [1] and on human D2R/β-arrestin [4] was 1 to 10 µM each time. Moreover, the half-maximal effective concentration (EC50) at human D2R/β-arrestin [2] and at human D2R/β-arrestin [3] was above 30 µM in each case.
Take `CC1(Oc2ccc(Cl)cc2)CCN(CCOc2cccc(F)c2C(F)(F)F)CC1` [Compound 156, 4-(4-chlorophenoxy)-1-(2-(3-fluoro-2-(trifluoromethyl)phenoxy)ethyl)-4-methylpiperidine]: the IC50 against human D2R/β-arrestin [1] and at human D2R/β-arrestin [4] was above 30 µM in each case. For the same molecule, the EC50 at human D2R/β-arrestin [2] was 0.1 to 1 µM; at human D2R/β-arrestin [3], below 0.1 µM.
Regarding `CC1(Oc2ccc(Cl)cc2)CCN(CCOc2ccc(F)cc2S(C)(=O)=O)CC1` [Compound 158, 4-(4-chlorophenoxy)-1-(2-(4-fluoro-2-(methylsulfonyl)phenoxy)ethyl)-4-methylpiperidine], the IC50 was 1 to 10 µM against human D2R/β-arrestin [1] and 0.1 to 1 µM against human D2R/β-arrestin [4]. Further, the values for the EC50 at human D2R/β-arrestin [2] and on human D2R/β-arrestin [3] were above 30 µM and 0.1 to 1 µM, respectively.

The values above are taken from patent US11498896B2 (The Broad Institute, Inc., priority 2014, dated 2022).
